# Marks after values point to notes of the source that are not given here.
# Legend:
# [1] = tested on: IgG; experiment: IgG/Au staining of coated polystyrene, type of endgroups
# Protocol: Except where indicated, the non-ionic surfactants were applied to the hydrophobic surfaces being tested as a 0.1% (weight/volume) solution in isopropanol. A sufficient amount of coating solution was used to cover the surface being testing with a thin layer of the solution (e.g., 25 μl of the solution per well for a standard 24-well plate). In some cases, the solution was applied to surface by spraying; in others, it was poured onto the surface (into the well). Except where indicated, coated samples were either dried at 70° C. for 30 minutes in an air circulated oven or dried at room temperature overnight to evaporate the isopropanol. Protein binding was determined in some examples using a colloidal gold straining procedure. In accordance with this procedure, colloidal gold becomes electrostatically attached to bound protein and is detected by measuring absorbance at 550 nanometers. Bio-Rad Laboratories' Colloidal Gold Total Protein Stain was used for this purpose, with absorbance being measured with a Cambridge Technologies Plate Reader (No. 7520). The non-ionic surfactants listed in Table 6 were tested for their ability to produce a low binding surface using the techniques described in Materials and Methods. Polystyrene was used as the hydrophobic test surface and IgG/Au staining was used as the readout.
# [2] = tested on: BSA protein (Bovine Serum Albumin, Fraction V); experiment: BSA binding to coated polystyrene 24-well plates at different pH, colloidal gold stain; conditions: for Absorbance (550 nm) pH = 9.2: BSA 10 μg/ml in 0.10 M NaHCO3 buffer; for Absorbance (550 nm) pH = 7.4: BSA 10 μg/ml in 0.10 M PBS; for Absorbance (550 nm) pH = 4.6: BSA 10 μg/ml in 0.10 M acetate buffer
# Protocol: Polystyrene plates having 24 wells (Corning Costar #9447) were coated as described in Materials and Methods.
# BSA protein (Bovine Serum Albumin, Fraction V, Sigma) was prepared at 10 μg/ml in 0.10 M acetate buffer (pH=4.6), in 0.10 M PBS (pH=7.4), and in 0.10 M NaHCO3 buffer (pH=9.2). Wells of each coated plate, along with uncoated controls, were aliquoted 0.50 ml each of the protein solutions. The samples were run in triplicate.
# The plates were placed on a rocker table for 30 minutes at 23° C. The protein solutions were then emptied from the plates, and the wells were rinsed three times with dl H2O. Thereafter, 1.0 ml of colloidal gold stain was added to each well (see Materials and Methods). The plates were placed on a rocker table overnight, rinsed three times with dI H2O, and air dried. Absorbance at 550 nm was then read using the Cambridge Technologies Plate Reader.
# [3] = tested on: Horse IgG; experiment: Protein binding by colloidal gold staining, coated medium binding polystyrene plates; conditions: coated medium binding PS; IgG 10 μg/ml, pH 9.4
# Protocol: Except where indicated, the non-ionic surfactants were applied to the hydrophobic surfaces being tested as a 0.1% (weight/volume) solution in isopropanol. A sufficient amount of coating solution was used to cover the surface being testing with a thin layer of the solution (e.g., 25 μl of the solution per well for a standard 24-well plate). In some cases, the solution was applied to surface by spraying; in others, it was poured onto the surface (into the well). Except where indicated, coated samples were either dried at 70° C. for 30 minutes in an air circulated oven or dried at room temperature overnight to evaporate the isopropanol.
# Protein binding was determined in some examples using a colloidal gold straining procedure. In accordance with this procedure, colloidal gold becomes electrostatically attached to bound protein and is detected by measuring absorbance at 550 nanometers. Bio-Rad Laboratories' Colloidal Gold Total Protein Stain was used for this purpose, with absorbance being measured with a Cambridge Technologies Plate Reader (No. 7520).
# The surfactants were coated onto medium binding polystyrene plates (Corning Costar No. 2587) as described in Material and Methods.
# The plates were incubated with IgG as follows: 0.1 ml of Horse IgG (Pierce Labs) at a working concentration of 10 μg/ml in 0.10M NaHCO3 buffer (pH9.4) were added to each well, incubated 30 minutes on a rocker table, and rinsed with dI H2O. The plates were gold stained overnight (0.3 ml/well), rinsed in dI H2O, air dried, and absorbance was measured at 550 nm.
# [4] = tested on: IgG; experiment: Coating durability using water washes, IgG binding by colloidal gold; conditions: for Absorbance (550 nm) Initial: coated polystyrene, no water wash; for Absorbance (550 nm) 1 Time 1 hr 23° C. / Absorbance (550 nm) 1 Time 24 hr 23° C. / Absorbance (550 nm) 1 Time 24 hr 37° C. / Absorbance (550 nm) 1 Time 24 hr 70° C.: dI H2O wash 1 time; for Absorbance (550 nm) 6 Times 30 min each 23° C.: dI H2O wash 6 times
# Protocol: Polystyrene plates having 24 wells (Corning Costar #9447) were coated with these surfactants as described in Materials and Methods. Durability was tested by adding dI H2O to the wells of a test plate (3.0 mls/well), following which the plate was placed on a rocker table. […] The protein solution was incubated with the plate on a rocker table for 30 minutes at 23° C., following which the plate was H2O rinse 3× (3 mls each time). The colloidal gold staining procedure described above was used to reveal bound protein. The staining comprised an overnight incubation on a rocker table at 23° C., a dI H2O rinse, drying at room temperature, and reading at 550 nm.
# [5] = tested on: Fetal Bovine Serum (FBS); experiment: Polymer blends molded into petri dishes, FBS protein binding by colloidal gold
# [6] = tested on: BSA; experiment: Polymer blends molded into petri dishes, BSA binding by colloidal gold
# Protocol: Low binding non-ionic surfactant molecules were blended at 5% (except as noted in Table 13) into a base polymer using a twin screw extruder, then injection molded into the shape of 35 mm petri dishes. Proteins tested were BSA and Fetal Bovine Serum (FBS). Protein binding was determined using a colloidal gold staining procedure as described above. In the case of the polypropylene and EVA blends, a silver enhancer was used (Sigma Chem. Co., St, Louis, Mo., Kit #SE-100).
# [7] = tested on: HRP-Goat A'Mouse IgG; experiment: Enzymatic determination of protein binding to coated medium binding polystyrene plate; conditions: coated medium binding PS; versus uncoated high binding polystyrene plate; absorbance 405 nm
# Protocol: The surfactants were coated onto a medium binding polystyrene plate (Corning Costar No. 2587) as described in Material and Methods. A medium binding polystyrene plate (Corning Costar No. 2587) and a high binding polystyrene plate (Corning Costar No. 2581) were used as controls.
# (a) HRP-Goat A'Mouse IgG: Kirkegaard & Perry Laboratories, Inc. Catalog No. 074-1806. Stock solution: 0.5 mg/ml; working concentration: 0.04 μg/ml. The working concentration was obtained by adding 11 μl of the stock solution per 25 mls of PBS pH 7.4 to produce a work stock (WS), and then diluting 1:6 (i.e., 10 mls WS+50 mls PBS pH 7.4).
# (1) 100 μl-well of HRP-Goat A'Mouse IgG at a concentration of 0.04 μg/ml were added to the test wells and incubated for 1 hour at room temperature.
# (2) The wells were then washed 5 times with the 1M wash solution. Each wash include a 5 minute soak followed by decanting.
# (3) 100 μl/well of substrate (30 mls ABTS+30 mls H2O2) were added to the test wells and incubated for 15 minutes at room temperature in the dark.
# (4) 100 μl/well of stopping solution (1% SDS) were added to the test wells.
# (5) The plates were then shaken and read at 405 nm.
# (6) Reduction in binding was determined by comparing the absorbance measured in step (5) with the absorbance measured for a high binding polystyrene plate which had not been treated with a non-ionic surfactant but otherwise subjected to steps (1) to (5).
# [8] = blended at 5% into polypropylene, silver enhancer
substance,measurement,setting,value
PEO(200) DI-OLEATE,Bound Protein Absorbance at 550 nm,[1],0.15
PEO(400) DI-OLEATE,Bound Protein Absorbance at 550 nm,[1],0.15
PEO(400) DI-STEARATE,Bound Protein Absorbance at 550 nm,[1],0.10
PEO(600) DI-STEARATE,Bound Protein Absorbance at 550 nm,[1],0.10
SORBITOL MONO-LAURATE,Absorbance (550 nm) pH = 9.2,[2],0.00
same,Absorbance (550 nm) pH = 7.4,[2],0.00
same,Absorbance (550 nm) pH = 4.6,[2],0.00
same,IgG Protein Binding Absorbance (550 nm),[3],0.00
same,Absorbance (550 nm) Initial,[4],0.00
same,Absorbance (550 nm) 1 Time 1 hr 23° C.,[4],0.00
same,Absorbance (550 nm) 1 Time 24 hr 23° C.,[4],0.00
same,Absorbance (550 nm) 1 Time 24 hr 37° C.,[4],0.00
same,Absorbance (550 nm) 1 Time 24 hr 70° C.,[4],0.00-0.02
same,Absorbance (550 nm) 6 Times 30 min each 23° C.,[4],0.02-0.06
SORBITOL MONO-STEARATE,Absorbance (550 nm) pH = 9.2,[2],0.00
same,Absorbance (550 nm) pH = 7.4,[2],0.00
same,Absorbance (550 nm) pH = 4.6,[2],0.00
same,Bound Protein Absorbance (550 nm) FBS,[5]; [8],0.000
same,Bound Protein Absorbance (550 nm) BSA,[6]; [8],0.000
same,IgG Protein Binding Absorbance (550 nm),[3],0.00
same,Absorbance (550 nm) Initial,[4],0.00
same,Absorbance (550 nm) 1 Time 1 hr 23° C.,[4],0.00
same,Absorbance (550 nm) 1 Time 24 hr 23° C.,[4],0.00
same,Absorbance (550 nm) 1 Time 24 hr 37° C.,[4],0.00
same,Absorbance (550 nm) 1 Time 24 hr 70° C.,[4],0.00
same,Absorbance (550 nm) 6 Times 30 min each 23° C.,[4],0.00
same,% Reduction in Protein Binding,[7],83.1* %
SORBITOL TRI-STEARATE,Bound Protein Absorbance (550 nm) FBS,[5]; blended at 5% into polystyrene,0.008
same,Bound Protein Absorbance (550 nm) BSA,[6]; blended at 5% into polystyrene,0.005

# Reference: US7776572B2, “Method for reducing loss of enzyme activity during storage” (Corning Incorporated, priority 1996, dated 2010)
